US10906878B2, “Kinase inhibitors for the treatment of disease” (Dana-Farber Cancer Institute, Inc., priority 2013, dated 2021)
Values joined by “and” are separate entries in the source; they are usually repeats but may differ in a detail not shown here. Identical values can stand only once. Like-named read-outs stand apart in the source and are kept apart here.

How the values were obtained:
[1] = molecular target: EGFR Del Ba/F3 cells (Homo sapiens, UniProt P00533, cells depend on it, form not given); assay: Ba/F3 cell growth inhibition (MTS assay), EGFR Del; assay type: cell-based; details: for EGFR activity (% Control, 1.0 μM drug) Assay 1 Del / IC50: Assay 1; for IC50: Del, read-out: EGFR Ba/F3 cells IC 50 (nM) Assay 1 Del; for EGFR activity (% Control, 100 nM drug) Del: Table G
Text: (§1) The specific cDNAs encoding the oncogenic alterations (EGFR: Del 19, L858R, L718Q, L844V, Del/T790M, L858R/T790M, Del 19/L718Q, Del 19/L844V, Del 19/T790M/L718Q and L858R/T790M/L718Q; FGFR: TEL-FGFR1, TEL-FGFR2, TEL-FGFR1 V561M, TEL-FGFR2 V561M; ALK: EML4-ALK; ROS1: CD74-ROS1) were cloned into the pDNA-Dual (BD Biosciences) vector using standard molecular biology techniques. Mutations were introduced using site-directed mutagenesis (Agilent) with mutant specific primers according to the manufacturer's instructions. All constructs were confirmed by DNA sequencing. The constructs were introduced into Ba/F3 cells using retroviral infection. Polyclonal cell lines were established by puromycin selection and subsequently cultured in the absence of interleukin-3 (IL-3). Uninfected Ba/F3 cells or cell lines expressing green fluorescent protein (GFP) were used as controls.
(§2) Growth and inhibition of growth was assessed by MTS assay. This assay, a colorimetric method for determining the number of viable cells, is based on the bioreduction of 3-(4,5-dimethylthiazol-2-yl)-5-(3-carboxymethoxyphenyl)-2-(4-sulfophenyl)-2H-tetrazolium (MTS) by cells to a formazan product that is soluble in cell culture medium, can be detected spectrophotometrically and was performed according to the manufacturer's recommended conditions. Ba/F3 cells were exposed to treatment for 72 hours and the number of cells used per experiment determined empirically to assure linear growth kinetics over that time period. All experimental points were set up in six to twelve wells and all experiments were repeated at least three times. […] The curves were fitted using a non-linear regression model with a sigmoidal dose response.

[2] = molecular target: EGFR Del/T790M Ba/F3 cells (Homo sapiens, UniProt P00533, T790M, cells depend on it, form not given); assay: Ba/F3 cell growth inhibition (MTS assay), EGFR Del/T790M; assay type: cell-based; details: for EGFR activity (% Control, 1.0 μM drug) Assay 1 Del/T790M / IC50: Assay 1; for IC50: Del/T790M, read-out: EGFR Ba/F3 cells IC 50 (nM) Assay 1 Del/T790M; for EGFR activity (% Control, 100 nM drug) Del/T790M: Table G
Text: as §1, §2

[3] = molecular target: EGFR Del/T790M/L718Q Ba/F3 cells (Homo sapiens, UniProt P00533, L718Q/T790M, cells depend on it, form not given); assay type: cell-based
Text: as §1, §2

[4] = molecular target: EGFR L858R Ba/F3 cells (Homo sapiens (Human), UniProt P00533, L858R); assay: Ba/F3 cell growth inhibition (MTS assay), EGFR L858R; assay type: cell-based; details: for EGFR activity (% Control, 1.0 μM drug) Assay 1 L858R / IC50: Assay 1; for IC50: L858R, read-out: EGFR Ba/F3 cells IC 50 (nM) Assay 1 L858R; for EGFR activity (% Control, 100 nM drug) L858R: Table G
Text: as §1, §2

[5] = test system: KIF5B/Ret_V804M; assay: Ba/F3 cell growth inhibition (MTS assay), KIF5B/Ret_V804M; assay type: cell-based
Description: as §2

[6] = molecular target: BLK (Homo sapiens (Human), UniProt P51451); assay: Kinase inhibition BLK; assay type: biochemical
[7] = molecular target: ITK (Homo sapiens (Human), UniProt Q08881); assay: Kinase inhibition ITK; assay type: biochemical
[8] = molecular target: TEC (Homo sapiens (Human), UniProt P42680); assay: Kinase inhibition TEC; assay type: biochemical
[9] = molecular target: TXK (Homo sapiens (Human), UniProt P42681); assay: Kinase inhibition TXK; assay type: biochemical
[10] = Microsome Stability Mouse; assay type: in vitro ADME; details: mouse microsomes
[11] = molecular target: EGFR Wild type vIII Ba/F3 cells (Homo sapiens (Human), UniProt P00533, DELINS30-297G); assay: Ba/F3 cell growth inhibition (MTS assay), EGFR Wild type vIII; assay type: cell-based
[12] = molecular target: EGFR L858R/T790M Ba/F3 cells (Homo sapiens (Human), UniProt P00533, L858R/T790M); assay: Ba/F3 cell growth inhibition (MTS assay), EGFR L858R/T790M; assay type: cell-based; details: for IC50: Assay 1, L858R/T790M, read-out: EGFR Ba/F3 cells IC 50 (nM) Assay 1 L858R/T790M; for EGFR activity (% Control, 100 nM drug) L858R/T790M: Table G
Text: as §1, §2

[13] = molecular target: EGFR L858R/T790M/L718Q Ba/F3 cells (Homo sapiens (Human), UniProt P00533, L718Q/L858R/T790M); assay: Ba/F3 cell growth inhibition (MTS assay), EGFR L858R/T790M/L718Q; assay type: cell-based
Text: as §1, §2

[14] = molecular target: EGFR L718Q/L858R Ba/F3 cells (Homo sapiens (Human), UniProt P00533, L718Q/L858R); assay: Ba/F3 cell growth inhibition (MTS assay), EGFR L858R/L718Q; assay type: cell-based; details: L718Q/L858R
[15] = molecular target: BTK (Homo sapiens (Human), UniProt Q06187); assay: BTK kinase assay (LanthaScreen Kinase assay); assay type: biochemical
Description: BTK kinase assay was conducted using LanthaScreen® Kinase assay.
1. Optimization of kinase concentration required to determine ATP Km,app. The assay was first performed at a high concentration of ATP (1 mM) against a dilution series of kinase in order to determine the amount of kinase required to elicit an approximately 80% change between the minimum and maximum TR-FRET emission ratios (the EC80 value).
2. Determination of ATP Km,app. Using the concentration of enzyme determined in step 1, the assay was then performed against a dilution series of ATP in order to determine the amount of ATP required to elicit a 50% change between the minimum and maximum TR-FRET emission ratios (the EC50 value). This concentration of ATP was referred to as the “apparent” Km value for ATP, or the ATP Km,app.
3. Optimization of kinase concentration required for assay at ATP Km,app. Using the ATP Km,app concentration of ATP determined in step 2, the kinase titration was repeated in order to determine the concentration of kinase required to elicit an approximately 80% change between the minimum and maximum TR-FRET emission ratios at the ATP Km,app concentration of ATP (the EC80 value). This was the concentration of kinase that will be used in an assay to determine an IC50 value for a compound of the invention.
Using the ATP and kinase concentrations determined above, the reaction was then performed in the presence of a dilution series of various compounds of the invention, and the amount of compounds required to elicit a 50% change in TR-FRET ratio (the IC50) was determined. The experiments can be performed over two days, with steps one and two being performed on the first day, and step three and the inhibitor IC50 determination(s) being performed on the second day.

Sequence of TXK (P42681 whole entry): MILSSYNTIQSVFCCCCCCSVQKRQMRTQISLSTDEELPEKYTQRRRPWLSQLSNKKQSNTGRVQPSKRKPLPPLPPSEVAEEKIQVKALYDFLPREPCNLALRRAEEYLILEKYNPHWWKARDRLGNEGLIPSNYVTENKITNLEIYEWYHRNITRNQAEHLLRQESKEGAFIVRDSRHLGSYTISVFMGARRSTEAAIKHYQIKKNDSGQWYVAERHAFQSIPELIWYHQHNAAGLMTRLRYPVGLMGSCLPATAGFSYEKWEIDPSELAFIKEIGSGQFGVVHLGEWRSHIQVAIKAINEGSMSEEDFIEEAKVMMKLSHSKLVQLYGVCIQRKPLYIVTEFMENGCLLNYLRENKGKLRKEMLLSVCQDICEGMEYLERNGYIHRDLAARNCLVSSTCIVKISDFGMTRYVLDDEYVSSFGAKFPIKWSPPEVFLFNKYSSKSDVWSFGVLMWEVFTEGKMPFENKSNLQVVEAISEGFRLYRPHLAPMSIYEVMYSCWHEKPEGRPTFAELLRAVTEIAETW
Sequence of BLK (P51451 whole entry): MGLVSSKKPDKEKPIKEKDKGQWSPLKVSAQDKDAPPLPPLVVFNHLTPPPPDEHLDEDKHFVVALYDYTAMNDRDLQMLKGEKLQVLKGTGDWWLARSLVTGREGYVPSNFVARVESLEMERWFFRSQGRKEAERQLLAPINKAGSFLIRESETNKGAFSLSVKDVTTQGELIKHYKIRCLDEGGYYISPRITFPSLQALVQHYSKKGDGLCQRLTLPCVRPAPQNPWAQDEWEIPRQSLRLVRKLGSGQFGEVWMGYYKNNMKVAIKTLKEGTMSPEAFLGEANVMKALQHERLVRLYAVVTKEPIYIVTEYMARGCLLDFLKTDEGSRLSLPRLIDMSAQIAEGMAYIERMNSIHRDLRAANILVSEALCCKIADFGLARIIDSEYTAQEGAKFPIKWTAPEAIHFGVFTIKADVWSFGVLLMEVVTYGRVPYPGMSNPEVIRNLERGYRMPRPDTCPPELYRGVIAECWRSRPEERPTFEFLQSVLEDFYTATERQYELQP
Sequence of TEC (P42680 whole entry): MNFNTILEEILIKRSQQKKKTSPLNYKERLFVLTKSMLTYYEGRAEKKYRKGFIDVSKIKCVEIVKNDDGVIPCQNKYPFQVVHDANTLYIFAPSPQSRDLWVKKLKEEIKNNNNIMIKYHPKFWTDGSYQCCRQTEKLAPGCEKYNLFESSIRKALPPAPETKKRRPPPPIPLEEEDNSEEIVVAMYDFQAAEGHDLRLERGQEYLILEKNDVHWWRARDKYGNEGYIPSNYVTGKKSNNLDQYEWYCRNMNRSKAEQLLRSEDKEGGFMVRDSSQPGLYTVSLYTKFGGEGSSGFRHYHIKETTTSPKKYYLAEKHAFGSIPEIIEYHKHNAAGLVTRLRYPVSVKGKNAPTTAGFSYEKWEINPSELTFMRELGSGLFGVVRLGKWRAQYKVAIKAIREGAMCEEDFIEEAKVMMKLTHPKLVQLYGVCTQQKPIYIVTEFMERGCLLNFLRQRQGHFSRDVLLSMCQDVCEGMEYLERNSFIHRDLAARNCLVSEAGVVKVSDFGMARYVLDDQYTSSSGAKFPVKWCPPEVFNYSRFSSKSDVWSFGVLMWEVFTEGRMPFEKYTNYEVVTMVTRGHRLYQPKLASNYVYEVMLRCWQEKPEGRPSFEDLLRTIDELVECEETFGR
Sequence of BTK (Q06187 whole entry): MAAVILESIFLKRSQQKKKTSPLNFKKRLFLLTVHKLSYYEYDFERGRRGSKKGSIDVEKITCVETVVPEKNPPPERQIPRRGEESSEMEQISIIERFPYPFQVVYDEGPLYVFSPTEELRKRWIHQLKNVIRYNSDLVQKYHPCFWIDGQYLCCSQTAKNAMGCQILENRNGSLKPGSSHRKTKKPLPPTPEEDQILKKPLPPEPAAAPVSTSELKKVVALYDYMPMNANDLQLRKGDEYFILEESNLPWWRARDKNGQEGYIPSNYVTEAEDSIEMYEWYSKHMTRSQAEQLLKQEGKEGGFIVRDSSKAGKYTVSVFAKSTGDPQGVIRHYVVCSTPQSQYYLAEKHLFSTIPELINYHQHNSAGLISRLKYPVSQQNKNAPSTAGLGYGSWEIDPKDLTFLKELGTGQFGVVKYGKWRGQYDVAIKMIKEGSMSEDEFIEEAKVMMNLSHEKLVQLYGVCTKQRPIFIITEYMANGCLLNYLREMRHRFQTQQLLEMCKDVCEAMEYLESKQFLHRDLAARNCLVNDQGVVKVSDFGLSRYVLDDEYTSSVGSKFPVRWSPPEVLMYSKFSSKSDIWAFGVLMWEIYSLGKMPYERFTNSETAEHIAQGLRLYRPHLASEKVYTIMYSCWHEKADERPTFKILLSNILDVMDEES
Sequence of ITK (Q08881 whole entry): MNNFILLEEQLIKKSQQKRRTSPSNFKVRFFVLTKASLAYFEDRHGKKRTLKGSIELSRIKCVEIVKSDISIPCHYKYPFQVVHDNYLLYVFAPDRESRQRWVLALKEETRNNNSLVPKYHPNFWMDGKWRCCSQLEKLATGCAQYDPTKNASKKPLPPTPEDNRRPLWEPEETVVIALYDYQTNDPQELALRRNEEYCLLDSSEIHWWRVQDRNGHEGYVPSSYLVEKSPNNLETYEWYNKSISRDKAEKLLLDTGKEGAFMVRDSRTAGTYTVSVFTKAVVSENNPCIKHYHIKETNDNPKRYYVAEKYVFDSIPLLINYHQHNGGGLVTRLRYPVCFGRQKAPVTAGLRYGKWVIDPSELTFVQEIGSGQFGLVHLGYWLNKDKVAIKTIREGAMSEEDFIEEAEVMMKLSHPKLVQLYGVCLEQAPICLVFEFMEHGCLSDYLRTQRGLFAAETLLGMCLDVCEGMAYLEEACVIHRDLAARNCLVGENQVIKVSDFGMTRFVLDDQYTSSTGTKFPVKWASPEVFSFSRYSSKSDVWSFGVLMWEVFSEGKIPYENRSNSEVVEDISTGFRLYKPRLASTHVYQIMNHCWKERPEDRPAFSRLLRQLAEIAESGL

Row | Compound | EGFR activity (% Control, 1.0 μM drug) Assay 1 Del [1] [% Control] | EGFR activity (% Control, 1.0 μM drug) Assay 2 Del [1] [% Control] | EGFR activity (% Control, 1.0 μM drug) Assay 1 Del/T790M [2] [% Control] | EGFR activity (% Control, 1.0 μM drug) Assay 2 Del/T790M [2] [% Control] | EGFR activity (% Control, 1.0 μM drug) Assay 1 Del/T790M/L718Q ([3]; Assay 1) [% Control] | EGFR activity (% Control, 1.0 μM drug) Assay 2 Del/T790M/L718Q [3] [% Control] | EGFR activity (% Control, 1.0 μM drug) Assay 1 L858R [4] [% Control] | EGFR activity (% Control, 1.0 μM drug) Assay 2 L858R [4] [% Control] | Kinase inhibition (% control, 1000 nM compound) BLK [6] [% control] | Kinase inhibition (% control, 1000 nM compound) ITK [7] [% control] | Kinase inhibition (% control, 1000 nM compound) TEC [8] [% control] | Kinase inhibition (% control, 1000 nM compound) TXK [9] [% control] | Microsome Stability Mouse min [10] [min] | IC50 [1] [nM] | IC50 [2] [nM] | IC50 [4] [nM] | IC50 [12] [nM] | EGFR activity (% Control, 100 nM drug) Del [1] [% Control] | EGFR activity (% Control, 100 nM drug) Del/T790M [2] [% Control] | EGFR activity (% Control, 100 nM drug) L858R [4] [% Control] | further results
1 | C=CC(=O)Nc1cccc(N(C(=O)NCc2ccccc2)c2cc(Nc3ccc(N4CCN(C)CC4)cc3OC)ncn2)c1 [Compound 3A, N-(3-(3-benzyl-1-(6-((2-methoxy-4-(4-methylpiperazin-1-yl)phenyl)amino)pyrimidin-4-yl)ureido)phenyl)acrylamide] | 2 | 1 | 1 | 2 | 53 | 86 | 2 | 4 | 19 | 100 | 55 | 7.4 |  |  |  |  |  |  |  |  | EGFR activity (% Control, 1.0 μM drug) Assay 1 KIF5B/Ret_V804M [5]: 102 % Control
2 | C=CC(=O)Nc1cccc(N(C(=O)OCc2ccccc2)c2ccnc(Nc3ccc(N4CCN(C)CC4)cc3OC)n2)c1 [Compound 4A, Benzyl (3-acrylamidophenyl)(2-((2-methoxy-4-(4-methylpiperazin-1-yl)phenyl)amino)pyrimidin-4-yl)carbamate] |  |  |  |  |  |  |  |  | 20 | 100 | 83 | 27 | 29 | 14.2 | 17.3 | 0.5 | 7.6 |  |  |  | IC50 ([11]; Assay 1, read-out: EGFR Ba/F3 cells IC 50 (nM) Assay 1 Wild type vIII): 2.92 nM; IC50 ([13]; Assay 1; T/L/L718Q; read-out: EGFR Ba/F3 cells IC 50 (nM) Assay 1 T/L/L718Q): 293 nM
3 | C=CC(=O)Nc1cccc(N(C(=O)Oc2ccccc2)c2ccnc(Nc3ccc(N4CCN(C)CC4)cc3OC)n2)c1 [Compound 10A] | 4 | 1 | 2 | 2 | 76 | 84 | 4 | 3 |  |  |  |  | 18.5 | 4.64 | 22.9 | 1.52 | 14.8 |  |  |  | IC50 ([11]; read-out: EGFR Ba/F3 cells IC 50 (nM) Assay 1 Wild type vIII): 28.1 nM; IC50 ([3]; read-out: EGFR Ba/F3 cells IC 50 Assay 1 Del/T/L718Q, Assay 1, Del/T/L718Q): > 1000 nM and 1000 nM; IC50 ([14]; read-out: EGFR Ba/F3 cells IC 50 (nM) Assay 1 L718Q/L858R, Assay 1): 146 nM; IC50 ([14]; read-out: EGFR Ba/F3 cells IC 50 (nM) Assay 2 L718Q/L858R, Assay 2): 204 nM; IC50 ([13]; read-out: EGFR Ba/F3 cells IC 50 (nM) Assay 1 T/L/L718Q; Assay 1; T/L/L718Q): 270 nM; KIF5B/Ret_V804M Ba/F3 cell growth (% control, 1.0 μM drug) ([5]; Assay 1): 91 % Control
4 | C=CC(=O)Nc1cccc(N(C(=O)Nc2ccccc2)c2cc(Nc3ccc(N4CCN(C)CC4)cc3)ncn2)c1 [Compound 25A] |  |  |  |  |  |  |  |  |  |  |  |  |  |  |  |  |  | 14 | 53 | 1 | EGFR activity (% Control, 100 nM drug) L858R/T790M [12]: 24 % Control; IC50 [15]: 31.2 nM
5 | C=CC(=O)Nc1cccc(N(C(=O)NCc2ccccc2)c2cc(Nc3ccc(N4CCN(C)CC4)cc3)ncn2)c1 [Compound 29A] |  |  |  |  |  |  |  |  |  |  |  |  |  |  |  |  |  | 2 | 6 | 0 | EGFR activity (% Control, 100 nM drug) L858R/T790M [12]: 13 % Control; IC50 [15]: 19.4 nM
